# No end group written: not given here.
# Key:
# [1] = tested on: memory disorder induced by amyloid β protein oligomer; assay: novel object recognition test in mouse model of memory disorder by administration of the amyloid β protein oligomer; format: in vivo, ICR mice; settings: for ability to remember (exploration time for novel object vs familiar object): 1 μM amyloid β protein oligomer + 10 μM peptide in artificial cerebrospinal fluid, 3.5 μl/side to lateral ventricles, test session 24 h after training, paired t-test
# Method: Preparation of a mouse model of memory disorder by administration of the amyloid β protein oligomer, and evaluation of the ability of memory acquisition by a novel object recognition test were carried out according to an earlier paper (Balducci et al., Proc Natl Acad Sci USA 107, 2295-2300, 2010).
# ICR mice (6 to 7 weeks old) were anesthetized with ketamine (100 mg/kg) and xylazine (40 mg/kg), and each mouse was fixed on a brain stereotaxic apparatus. After removal of the scalp, small holes were made on the skull on the lateral ventricles, and guide cannulae (23 gage) were bilaterally embedded at the positions of ±1.0 mm lateral and 0.65 mm posterior to the bregma. The guide cannulae were fixed with a dental resin. After a period of four to five days for recovery from the surgery, each mouse was allowed to move freely for 10 minutes in order to allow acclimatization to the environment in a test cage (39 cm×22 cm) (habituation). This was continued for 3 days. On the next day, an artificial cerebrospinal fluid (control), artificial cerebrospinal fluid in Which 1 μM amyloid β protein oligomer is dissolved, or artificial cerebrospinal fluid in which 1 μM amyloid β protein oligomer and 10 μM p3-Alcβ37 peptide or a partial peptide thereof are dissolved, was bilaterally administered (3.5 μl/side) to the lateral ventricles through the guide cannulae embedded in the head, using an injection cannulae (30 gage, 1.7 mm from the brain surface).
# Two hours after the administration, two identical objects (glass vials each having a plastic cap [objects A]: 3-cm diameter×6.5-cm height) were placed in the test cage for which the habituation had been carried out, such that the objects were positioned about 20 cm distant from each other. In the test cage, each mouse was allowed to move freely for 10 minutes to allow learning of the object A (training session). On the next day, 24 hours after the learning, a test was carried out to investigate if the mouse remembered the object A, which was presented on the previous day (test session). More specifically, in the same test cage, the object A presented on the previous day (that is, a familiar object) and a novel object (a metal cube [object B]: 4 cm×4 cm×4 cm) were placed at the same positions as those used on the previous day, and the mouse was allowed to move freely for 10 minutes in the test cage. In normal mice, since they naturally show interest in novel objects, the time for exploring the novel object (object B) is longer than the time for exploring the familiar object (object A). […] The exploratory behavior for each object was recorded using a video camera, and the total exploration time for each object was calculated. The time spent for contacting or approach of the head to the object (including sniffing), and contacting of a forelimb or hindlimb with the object was included in the exploration time. The ability of memory acquisition of the mice in each group was represented using the discrimination index. The discrimination index was defined as follows: ([exploration time for novel object]−[exploration time for familiar object ])/([exploration time for novel object]+[exploration time for familiar object]). In cases where discrimination between the novel object and the familiar object is impossible, the discrimination index is 0, while in cases where the exploration time for the novel object is longer than the exploration time for the familiar object, the discrimination index is positive. […] Therefore, the calculation of the exploration time and the discrimination index was carried out based on the behavior observed during the first 5 minutes after the placement of the mouse in the test cage.
# In terms of the reagents used, the composition of the artificial cerebrospinal fluid was as follows: 137 mM NaCl, 3 mM KCl, 1 mM MgCl2, 1.2 mM CaCl2, 2.5 mM glucose, and 2 mM sodium phosphate buffer (pH 7.4). […]
# [2] = tested on: memory disorder induced by MK-801 (NMDA receptor-dependent memory disorder); assay: novel object recognition test in mouse model of memory disorder prepared by administration of NMDA receptor inhibitor MK-801; format: in vivo, ICR mice; settings: 10 μM peptide to cerebral ventricle; (+)-MK-801 maleate 2 mg/kg intraperitoneally; paired t-test, P>0.05
# Method: ICR mice (6 to 7 weeks old) were anesthetized with ketamine (100 mg/kg) and xylazine (40 mg/kg), and each mouse was fixed on a brain stereotaxic apparatus. After removal of the scalp, small holes were made on the skull on the lateral ventricles, and guide cannulae (23 gage) were bilaterally embedded at the positions of ±1.0 mm lateral and 0.65 mm posterior to the bregma. The guide cannulae were fixed with a dental resin. After a period of four to five days for recovery from the surgery, each mouse was allowed to move freely for 10 minutes in order to allow acclimatization to the environment in a test cage (39 cm×22 cm) (habituation). This was continued for 3 days. […]
# Two hours after the administration, two identical objects (glass vials each having a plastic cap [objects A]: 3-cm diameter×6.5-cm height) were placed in the test cage for which the habituation had been carried out, such that the objects were positioned about 20 cm distant from each other. […] The exploratory behavior for each object was recorded using a video camera, and the total exploration time for each object was calculated. […]
Sequence,ability to remember (exploration time for novel object vs familiar object) [1],"discrimination index relative to the group in which the oligomer was administered ([1]; 1 μM oligomer + 10 μM peptide, lateral ventricles, Tukey test, P<0.01)","discrimination index relative to the group in which the artificial cerebrospinal fluid was administered ([1]; 1 μM oligomer + 10 μM peptide, lateral ventricles, Tukey test, P>0.05)",effect to ameliorate memory disorder (exploration time for novel object vs familiar object) [2]
"VLSSQQFLHRG (a part of p3-Alc beta 37 (position 1-11)) [p3-Alcβ37[1-11], partial peptide corresponding to positions 1 to 11 of p3-Alcβ37]",ability to remember remained impaired,,,
"VLSSQQFLHRGHQPPPEMAGHSLASSHRNSMIPSAAT (listed as Homo sapiens) [p3-Alcβ37, peptide composed of 37 amino acids produced by cleavage of Alcadein-β by γ-secretase and α-secretase]",remarkable recovery of the ability to remember,significant increase in the discrimination index,No significant difference in the discrimination index,effect to ameliorate memory disorder was not found
"GHSLASSHRNSMIPSAAT (a part of p3-Alc beta 37 (position 20-37)) [p3-Alcβ37 [20-37], partial peptide corresponding to positions 20 to 37 of p3-Alcβ37]",no recovery of the ability to remember,,,
"VLSSQQFLHRGHOPPPEMA (VLSSQQFLHRGHQPPPEMA; not fully specified) [p3-Alcβ37 [1-19], partial peptide corresponding to positions 1 to 19 of p3-Alcβ37]",remarkable recovery of the ability to remember,,,
"HRGHQPPPEMA (a part of p3-Alc beta 37 (position 9-19)) [p3-Alcβ37[9-19], partial peptide corresponding to positions 9 to 19 of p3-Alcβ37 (11 amino acids)]",ability to remember showed remarkable recovery,,,
